Source: ChEMBL document CHEMBL5727875, “Substituted bicycle heterocyclic derivatives useful as ROMK channel inhibitors” (2020)

Target: T1, ATP-sensitive inward rectifier potassium channel 1 (Homo sapiens, UniProt P48048)
T1 sequence (P48048 whole entry): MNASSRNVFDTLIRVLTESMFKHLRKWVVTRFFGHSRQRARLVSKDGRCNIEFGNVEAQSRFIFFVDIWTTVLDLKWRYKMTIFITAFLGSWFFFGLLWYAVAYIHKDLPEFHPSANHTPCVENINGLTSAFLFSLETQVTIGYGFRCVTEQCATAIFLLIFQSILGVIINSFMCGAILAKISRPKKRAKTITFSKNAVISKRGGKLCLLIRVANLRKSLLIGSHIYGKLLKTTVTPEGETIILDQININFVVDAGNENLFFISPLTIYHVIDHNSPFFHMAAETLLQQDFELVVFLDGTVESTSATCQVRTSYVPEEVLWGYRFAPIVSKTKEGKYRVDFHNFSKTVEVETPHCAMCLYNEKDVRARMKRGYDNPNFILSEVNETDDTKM
Experiment: Electrophysiology Assay: The coverslip plated with cells was placed in the experiment chamber perfused with bath solution composed of (in mM): 135 NaCl, 5 KCl, 2 CaCl2), 1 MgCl2, 10 HEPES, 5 Glucose (pH 7.4). Patch pipettes with resistance between 2-5 Megaohms, when filled with a solution containing (in mM): 135 KCl, 1 EGTA, 1 MgCl2, 10 HEPES, 2 Na2ATP (pH 7.3), were used to form gigaseals. The …

## Cc1c([C@@H](O)CNCc2cnn(-c3ccc4oc(=O)n(C)c4c3)c2)ccc2c1COC2=O
  IC50: 12 nM
